Assay results: patent US20110028453A1, “Treating Negative Symptoms of Schizophrenia Associated with Defective Neuregulin 1” (priority 2009, published 2011)

Legend:
[1] = tested on: ErbB4; experiment: Western blot of ErbB4 level in treated A172 cells; type: cell-based, human
Experimental: (§1) A172 cells were cultured in DMEM supplemented with 10% heat-inactivated fetal bovine serum (FBS; Hyclone, Logan, Utah), 100 U/mL penicillin and 0.1 mg/mL streptomycin (Invitrogen, Carlsbad, Calif.) at 37° C. in a humidified incubator with 5% CO2 and 95% air.
(§2) The cells were lysed and the lysates were suspended in a RIPA buffer (50 mM HEPES (pH 7.4), 4 mM EDTA, 150 mM NaCl, 10 mM Na4P2O7, 100 mM NaF, 2 mM Na3VO4, 1% Triton X-100, 0.25% sodium deoxycholate, 50 mM 4-(2-aminoethyl) benzene sulfonylfluoride, 50 μg/mL leupeptin, and 20 μg/mL aprotinin). For each cell sample, 30˜50 μg of total protein, along with a molecular weight ladder were resolved on 8% a bis-tris polyacrylamide NuPAGE gels (90˜130 V, 2 hrs) via electrophoresis and then transferred onto a nitrocellulose membrane (Invitrogen) (550 mA, 90 min) The membrane was first blocked using phosphate buffered saline (PBS) with 5% dry skimmed milk powder for 1 hr at room temperature and then incubated at 4° C. in the presence of mouse anti-serotonin transporter antibody (MAB1564; Chemicon), rabbit anti-norepinephrine transporter antibody (AB2234; Millipore, Bedford, Mass.), or anti-β-actin antibody (MAB1501, Chemicon) overnight. The antibody was diluted in phosphate buffered saline containing 0.1% Tween-20 (PBST). Afterwards, the membrane was washed with PBST and then incubated with a peroxidase-conjugated secondary antibody in PBST. After being washed for several times, the membrane was subjected to the enhanced chemiluminescence (ECL) analysis, following the method described in Yeh et al., 2009, Glia, 57:454-464, using an ECL kit purchased from Santa Cruz Biotechnology and Kodak X-OMAT LS film (Eastman Kodak, Rochester, N.Y.).
(§3) A172 cells were cultured in the presence of serotonin at a concentration of 1, 3, 10, 30, or 100 μM. The levels of both NGR1 and ErbB4, the major receptor of NRG1 in the brain, in the treated A172 cells were examined by Western blot as described above at various time points (e.g., 2 hr, 4 hr, 8 hr, 12 hr, and 24 hr post treatment), using rabbit anti-NRG1 precursor antibody no. […]

[2] = tested on: NRG1; experiment: Western blot of NRG1 level in treated A172 cells; type: cell-based, human
Experimental: as §1, §2, §3

[3] = tested on: wild-type and NRG1+/- mice; experiment: Forced swimming test; type: in vivo, mouse; details: for immobility period: desipramine 20 mg/kg i.p.; for effect on immobility time: i.p., desipramine 20, imipramine 15, venlafaxine 15 mg/kg
Source text: (§4) Transmembrane (TM)-domain NRG1 heterozygous mutant mice (129S5-Nrg1tm1Lex, ID#011745-UCD) were obtained from Mutant Mouse Regional Resource Centers (MMRRC) and backcrossed with B6 mice. NRG1^+/− mice and their wild-type littermates were generated by in-house mating of male NRG1^+/− mice and female C57BL/6 mice. Heterozygous crossing has been practiced for at least 7 generations to obtain animals with a homogeneous C57BL/6 genetic background except for the TM-mutated nrg1 gene locus. Mouse genotypes were determined by PCR analysis. Animals were housed (five per cage) under a 12-hr light/dark cycle (lights on from 8:00 a.m. to 8:00 p.m.) at constant room temperature and relative humidity with food and water available ad libitum. All experiments were started at 10-week-old period at weight of 25-30 g.
(§5) Before undergoing any behavioral test, animals were handled by an investigator for at least 3 days so that they became familiar with the investigator. The animals had been placed under laboratory conditions for at least 1 hr before each behavioral test.
To perform the forced swimming test, each mouse, administered via intraperitoneal injection with either one of the above-listed serotonin transporter inhibitors or saline 30-60 minutes ago, was placed individually in a clear glass cylinder (height, 25 cm; diameter, 15 cm) containing water (depth: 15 cm; temperature: 26±1° C.). Its behavior was recorded by a video camera during a 6-min testing period. The duration of immobility was measured during the last 4 min after a 2-min habituation period.

[4] = tested on: wild-type and NRG1+/- mice; experiment: Social withdrawal behavior evaluation; type: in vivo, mouse; design: key to social approach change score: score: +1/s social side, 0 center, -1 nonsocial; presence minus absence; details: i.p. 30 min before testing; for social approach change score: NRG1+/- mice; for social approach change score, effect: wild-type mice, same doses
Source text: as §4, §5
The social withdrawal behavior evaluation study was performed following the method described in Sankoorikal et al., Biol. Psychiatry 59:415-423, 2006 with modifications. Briefly, this study was carried out in a behavioral testing apparatus containing two end chambers and one middle chamber. A clear Plexiglas cylinder was placed in each of the two end chambers, one being designated as “social side” (where stimulus to mice was introduced through the cylinder) and the other being designated as the “nonsocial side.” (where the cylinder is empty). Multiple holes (0.5 in diameter each) are evenly spaced over the surface of the two cylinders.
Each of the mice to be tested was housed individually for 3 days before the social withdrawal behavior evaluation study was performed. During the study, the response (i.e., social approach) of a test mouse to a novel (unfamiliar) “stimulus” was observed within 5 minutes after the mouse was exposed to the stimulus. A “social approach score” was calculated for each mouse according to the time it spent in each of the three chambers as follows: +1 for each second spent in the social side chamber, 0 for each second spent in the center chamber, and −1 for each second spent in the nonsocial side chamber. The “social approach change score” was calculated by subtracting the value of “social approach score in the absence of stimulus mouse” condition from the value for “presence of stimulus mouse” condition.

[5] = NRG1+/- mice, much greater than in wild-type
[6] = male (FIG. 2 panel A), desipramine 20, imipramine 15, fluvoxamine 15, venlafaxine 15, duloxetine 20, escitalopram 30 mg/kg, saline −37.7±28.8
[7] = female, duloxetine 20, escitalopram 30 mg/kg, saline −60.4±40.2

| SMILES | effect on immobility time [3, 5] | effect on immobility time ([3]; wild-type mice) | social approach change score [4, 6] | social approach change score, effect [4] | also measured |
| --- | --- | --- | --- | --- | --- |
| CCCN(CCC)C1CCc2cccc(O)c2C1 (centres unmarked) [8-OH DPAT, 8-hydroxy-N,N-dipropyl-2-aminotetralin] |  |  |  |  | level of ErbB4 compared with untreated A172 cells (maximal effect) ([1]; 0.3 μM, 4 hours): 1.44±0.10 fold; level of NRG1 compared with untreated A172 cells (maximal effect) ([2]; 0.3 μM, 4 hours): 1.44±0.12 fold |
| COc1cc(CC(C)N)c(OC)cc1I (centres unmarked) [DOI] |  |  |  |  | effect on level of ErbB4 ([1]; 0.1-3 μM, 4 hours): did not show increased levels; effect on level of NRG1 ([2]; 0.1-3 μM, 4 hours): did not show increased levels |
| CNCCCN1c2ccccc2CCc2ccccc21 [desipramine] | decreased | only slightly affected | 122.7±31.0 | not significantly different | immobility ([3]; C57BL/6 wild-type mice, desipramine 50 mg/kg, saline 101.4±16.4 sec): 58.6 ± 11.0 s; immobility period ([3]; NRG1+/- mice, control NRG1+/- = 122.8%, p<0.01): 36.5±18.0%; immobility period ([3]; wild-type mice, control wild-type = 100.0%, p=0.24): 65.7±24.5% |
| CNCC[C@H](Oc1cccc2ccccc12)c1cccs1 [duloxetine] |  |  | 78.7±28.5 | not significantly different | social approach change score [4, 7]: 103.7±30.8 |
| CN(C)CCC[C@@]1(c2ccc(F)cc2)OCc2cc(C#N)ccc21 [escitalopram] |  |  | 175.3±60.4 | not significantly different | social approach change score [4, 7]: 110.1±41.9 |
| COCCCC/C(=N\OCCN)c1ccc(C(F)(F)F)cc1 [fluvoxamine] |  |  | 98.6±15.9 | not significantly different |  |
| CN(C)CCCN1c2ccccc2CCc2ccccc21 [imipramine] | decreased | only slightly affected | 138.7±18.8 | not significantly different |  |
| NCCc1c[nH]c2ccc(O)cc12 [serotonin] |  |  |  |  | level of ErbB4 compared to saline control ([1]; serotonin 10 μM, p<0.05): 1.7±0.1 fold; level of NRG1 compared to saline control ([2]; serotonin 10 μM, p<0.05): 1.4±0.06 fold |
| COc1ccc(C(CN(C)C)C2(O)CCCCC2)cc1 (centres unmarked) [venlafaxine] | decreased | only slightly affected | 61.9±24.7 | not significantly different |  |
